In series [1] the target is T1, pseudo-kinase domain (JH2, amino-acids 536-812) of human V617F mutant JAK2 (Homo sapiens, UniProt O60674, F794H/V617F/W659A/W777A).
T1 construct: pseudo-kinase domain (JH2, amino-acids 536-812 with 3 surface mutations W659A, W777A, F794H); His (C); purchased BPS Bioscience 79498; host or cells: baculovirus expression system
The series can be described thus: JAK2 LanthaScreen JH2-V617F Binding Assay. The conditions noted are these: 50 nM tracer, read-out: JH2BINDING—V617F IC50. The procedure: Example C. JAK2 LanthaScreen JH2-V617F Binding Assay
(§1) JAK2 JH2-V617F binding assay utilizes pseudo-kinase domain (JH2, amino-acids 536-812 with 3 surface mutations W659A, W777A, F794H) of human V617F mutant JAK2 expressed as C-terminal His-Avi-tagged, biotinylated protein in a baculovirus expression system (BPS Bioscience, Catalog #79498). The assay was conducted in black 384-well polystyrene plates in a final reaction volume of 20 μL. JAK2 JH2-V617F (0.26 nM) was incubated with compounds (100 nL serially diluted in DMSO) in the presence of 50 nM Fluorescent JAK2-JH2 Tracer (MedChem Express Catalog #HY-102055) and 0.25 nM Streptavidin-Tb cryptate (Cisbio Part #610SATLB) in assay buffer (50 mM Tris, pH=7.5, 10 mM MgCl2, 0.01% Brij-35, 0.1% BSA, 1 mM EGTA, 5% Glycerol and 5 mM DTT). Non-specific binding was accessed in the presence of 2 mM ATP. After incubation for 1 hour at 25° C., LanthaScreen signals were read on a PHERAstar FS plate reader (BMG LABTECH). Data was analyzed with IDBS XLfit and GraphPad Prism 5.0 software using a four parameter dose response curve to determine IC50 for each compound.
On the technique in general: In TR-FRET formats the signal depends on donor and acceptor labels being close together.

For series [2], the target named is T2, pseudo-kinase domain (JH2, amino-acids 536-812) of human Wild Type JAK2 (Homo sapiens, UniProt O60674, F794H/W659A/W777A).
T2 construct: pseudo-kinase domain (JH2, amino-acids 536-812 with 3 surface mutations W659A, W777A, F794H); His (C); purchased BPS Bioscience 79463; host or cells: baculovirus expression system
T2 sequence (O60674 536-812 W659A/W777A/F794H): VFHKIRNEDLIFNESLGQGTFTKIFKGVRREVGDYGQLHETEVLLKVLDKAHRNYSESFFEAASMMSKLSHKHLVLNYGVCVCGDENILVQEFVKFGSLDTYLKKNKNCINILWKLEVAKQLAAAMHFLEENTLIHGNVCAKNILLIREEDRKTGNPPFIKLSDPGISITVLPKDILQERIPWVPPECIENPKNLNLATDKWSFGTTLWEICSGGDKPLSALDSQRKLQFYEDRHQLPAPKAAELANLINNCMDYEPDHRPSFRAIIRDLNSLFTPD
The series is described as follows: JAK2 LanthaScreen JH2-WT Binding Assay. The conditions noted are these: 50 nM tracer, read-out: JH2BIND_WT IC50. The procedure:
Example B. JAK2 LanthaScreen JH2-WT Binding Assay
as §1, with “JH2-WT” for “JH2-V617F”, “Wild Type” for “V617F mutant”, “#79463).” for “#79498).”, “JH2-WT (0.145” for “JH2-V617F (0.26”

Series [3] addresses T3, catalytic domain (JH1, amino acids 826-1132) of human JAK2 (Homo sapiens, UniProt O60674).
T3 construct: catalytic domain (JH1, amino acids 826-1132) of human JAK2; FLAG (N); purchased Carna Biosciences 08-445-20N; host or cells: baculovirus expression system
The series can be described thus: JAK2 LanthaScreen JH1 binding assay. The following applies: JAK2 JH1, 50 nM tracer; read-out: JH1BIND IC50. The procedure:
Example A. JAK2 LanthaScreen […] Binding Assay
JAK2 JH1 binding assay utilizes catalytic domain (JH1, amino acids 826-1132) of human JAK2 expressed as N-terminal FLAG-tagged, biotinylated protein in a baculovirus expression system (Carna Biosciences, Product #08-445-20N). The assay was conducted in black 384-well polystyrene plates in a final reaction volume of 20 μL. JAK2 JH1 (1.5 nM) was incubated with compounds (100 nL serially diluted in DMSO) in the presence of 50 nM fluorescent JAK2-JH1 tracer and 0.5 nM Streptavidin-Tb cryptate (Cisbio Part #610SATLB) in assay buffer (50 mM Tris, pH=7.5, 10 mM MgCl2, 0.01% Brij-35, 0.1% BSA, 1 mM EGTA, […] and 5 mM DTT). Non-specific binding was accessed in the presence of 2 mM ATP. After incubation for 2 hours at 25° C., LanthaScreen signals were read on a PHERAstar FS plate reader (BMG LABTECH).
Data was analyzed with IDBS XLfit and GraphPad Prism 5.0 software using a four parameter dose response curve to determine IC50 for each compound.

Series [4] addresses T4, catalytic domain (JH1, amino acids 808-1132) of human JAK2 (Homo sapiens, UniProt O60674).
T4 construct: catalytic domain (JH1, amino acids 808-1132) of human JAK2; His (N); purchased BPS Bioscience 40450; host or cells: baculovirus expression system
The series can be described thus: JAK2 HTRF Enzyme Activity Assay. It counts as biochemical. The conditions noted are these: ATP 30 μM; read-out: ENZ 30UMATP IC50. The procedure: Example D. JAK2 HTRF Enzyme Activity Assay
JAK2 enzyme activity assays utilize catalytic domain (JH1, amino acids 808-1132) of human JAK2 expressed as N-terminal His-tagged protein in a baculovirus expression system (BPS Bioscience, Catalog #40450). The assays was conducted in black 384-well polystyrene plates in a final reaction volume of 20 μL. JAK2 (0.015 nM) was incubated with compounds (100 nL serially diluted in DMSO) in the presence of ATP (30 μM or 1 mM) and 500 nM Biotin-labeled EQEDEPEGDYFEWLE (SEQ ID NO.: 1) peptide (BioSource International, custom synthesis) in assay buffer (50 mM Tris, pH=7.5, 10 mM MgCl2, 0.01% Brij-35, 0.1% BSA, 1 mM EGTA, 5% Glycerol and 5 mM DTT) for 60 minutes at 25° C. The reactions were stopped by the addition of 10 μL of detection buffer (50 mM Tris, pH 7.8, 0.5 mg/mL BSA, 150 mM NaCl), supplemented with EDTA, LANCE Eu-W1024 anti-phosphotyrosine (PY20), (PerkinElmer, Catalog #AD0067) and Streptavidin SureLight APC (PerkinElmer Catalog #CR130-100), for a final concentration of 15 mM, 1.5 nM and 75 nM, respectively. HTRF signals were read after 30 minutes incubation at room temperature on a PHERAstar FS plate reader (BMG LABTECH). Data was analyzed with IDBS XLfit and GraphPad Prism 5.0 software using a four parameter dose response curve to determine IC50 for each compound. The compounds of the disclosure were tested in one or more of the assays described in Examples A-D, and the resulting data are shown in Table A.

For series [5] the following is noted: from [2H]C([2H])([2H])n1c(=O)n([C@H]2CC[C@@](CC=C)(NC(=O)[C@H]3C[C@H]3F)CC2)c2c3c(-c4ccc(OCCC=C)cc4)cn(S(=O)(=O)c4ccccc4)c3ncc21, rcm bond, Grubbs catalyst 2nd generation, dichloromethane, 19.0 mM, 40.0 °C.

Here are results for seven molecules from US20240376124A1, “Macrocyclic Kinase Inhibitors” (Incyte Corporation, priority 2023, published 2024).

Molecules are shown by their SMILES. “And” between values parts separate entries of the source, which are not always exact repeats. Identical values can stand only once.

What is called IC50 is the concentration needed to halve the response being measured.

T3 sequence (O60674 826-1132): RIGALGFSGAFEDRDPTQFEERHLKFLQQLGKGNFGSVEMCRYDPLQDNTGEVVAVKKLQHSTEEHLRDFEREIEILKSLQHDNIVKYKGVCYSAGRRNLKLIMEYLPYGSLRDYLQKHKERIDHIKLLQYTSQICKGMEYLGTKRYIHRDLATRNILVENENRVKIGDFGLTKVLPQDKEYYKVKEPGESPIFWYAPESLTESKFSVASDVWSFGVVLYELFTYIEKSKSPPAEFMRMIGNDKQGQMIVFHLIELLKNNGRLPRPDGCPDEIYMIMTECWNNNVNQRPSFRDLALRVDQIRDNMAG
T1 sequence (O60674 536-812 V617F/W659A/W777A/F794H): as the sequence (O60674 536-812 W659A/W777A/F794H) above, with V82F counted along it
T4 sequence (O60674 808-1132): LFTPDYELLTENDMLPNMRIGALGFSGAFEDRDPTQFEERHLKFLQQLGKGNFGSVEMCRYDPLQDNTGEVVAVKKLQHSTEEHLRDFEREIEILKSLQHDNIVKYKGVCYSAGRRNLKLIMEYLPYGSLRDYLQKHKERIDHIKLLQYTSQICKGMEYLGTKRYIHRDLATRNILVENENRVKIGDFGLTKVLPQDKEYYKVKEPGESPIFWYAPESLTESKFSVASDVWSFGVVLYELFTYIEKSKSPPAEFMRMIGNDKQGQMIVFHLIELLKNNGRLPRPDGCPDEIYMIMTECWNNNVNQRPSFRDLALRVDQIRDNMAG

On to `[2H]C([2H])([2H])n1c(=O)n2c3c4c(c(-c5cn(CC6CC6)nc5F)[nH]c4ncc31)-c1ccc(cc1)OCC/C=C/C[C@]1(NC(=O)[C@H]3C[C@H]3F)CC[C@@H]2CC1` [Example 14, (1R,2R)-N-((3^1S,3^4s,E)-2^7-(1-(cyclopropylmethyl)-3-fluoro-1H-pyrazol-4-yl)-2^3-(methyl-d3)-2^2-oxo-2^1,2^2,2^3,2^6-tetrahydro-9-oxa-2(8,1)-imidazo[4,5-d]pyrrolo[2,3-b]pyridina-1(1,4)-benzena-3(1,4)-cyclohexanacyclononaphan-5-en-3^4-yl)-2-fluorocyclopropane-1-carboxamide], for which the IC50 was not above 10 nM in series [1]; not above 10 nM in series [2]; 500 to 1000 nM and > 1000 nM in series [3]; 500 to 1000 nM and > 1000 nM in series [4].

Turning to `[2H]C([2H])([2H])n1c(=O)n2c3c4c(c(-c5cn(C(C)C)nc5F)[nH]c4ncc31)-c1ccc(cc1)OCC/C=C/C[C@]1(NC(=O)[C@H]3C[C@H]3F)CC[C@@H]2CC1` [Example 13, (1R,2R)-2-fluoro-N-((3^1S,3^4s,E)-2^7-(3-fluoro-1-isopropyl-1H-pyrazol-4-yl)-2^3-(methyl-d3)-2^2-oxo-2^1,2^2,2^3,2^6-tetrahydro-9-oxa-2(8,1)-imidazo[4,5-d]pyrrolo[2,3-b]pyridina-1(1,4)-benzena-3(1,4)-cyclohexanacyclononaphan-5-en-3^4-yl)cyclopropane-1-carboxamide], the concentration for half-maximal inhibition (IC50) in series [1] is not above 10 nM; in series [2], not above 10 nM; in series [3], more than 1000 nM; in series [4] it was more than 1000 nM.

For the molecule `[2H]C([2H])([2H])n1c(=O)n2c3c4c(c(-c5cnn(CC(F)F)c5)[nH]c4ncc31)-c1ccc(cc1)OCC/C=C/C[C@]1(NC(=O)[C@H]3C[C@H]3F)CC[C@@H]2CC1` [Example 11, (1R,2R)-N-((3^1S,3^4s,E)-2^7-(1-(2,2-difluoroethyl)-1H-pyrazol-4-yl)-2^3-(methyl-d3)-2^2-oxo-2^1,2^2,2^3,2^6-tetrahydro-9-oxa-2(8,1)-imidazo[4,5-d]pyrrolo[2,3-b]pyridina-1(1,4)-benzena-3(1,4)-cyclohexanacyclononaphan-5-en-3^4-yl)-2-fluorocyclopropane-1-carboxamide], the IC50 was not above 10 nM in series [1], not above 10 nM in series [2], 500 to 1000 nM in series [3] and more than 1000 nM in series [4].

As to `[2H]C([2H])([2H])n1c(=O)n2c3c4c(c(-c5cn(CC)nc5F)[nH]c4ncc31)-c1ccc(cc1)OCCC(O)CC[C@]1(NC(=O)[C@H]3C[C@H]3F)CC[C@@H]2CC1` (stereo partly drawn) [Example 9, (1R,2R)—N-((3^1S,3^4s)-2^7-(1-Ethyl-3-fluoro-1H-pyrazol-4-yl)-6-hydroxy-2^3-(methyl-d)-2^2-oxo-2^1,2^2,2^3,2^6-tetrahydro-9-oxa-2(8,1)-imidazo[4,5-d]pyrrolo[2,3-b]pyridina-1(1,4)-benzena-3(1,4)-cyclohexanacyclononaphane-3^4-yl)-2-fluorocyclopropane-1-carboxamide], the IC50 in series [1] is not above 10 nM; in series [2], not above 10 nM; in series [3], 500 to 1000 nM; in series [4], more than 1000 nM.

In the case of `[2H]C([2H])([2H])n1c(=O)n2c3c4c(c(-c5cn(C)nc5OC)[nH]c4ncc31)-c1ccc(cc1)OCC/C=C/C[C@]1(NC(=O)C3CC3)CC[C@@H]2CC1` [Example 2, N-((3^1s,3^4s,E)-2^7-(3-Methoxy-1-methyl-1H-pyrazol-4-yl)-2^3-(methyl-d3)-2^2-oxo-2^1,2^2,2^3,2^6-tetrahydro-9-oxa-2(8,1)-imidazo[4,5-d]pyrrolo[2,3-b]pyridina-1(1,4)-benzena-3(1,4)-cyclohexanacyclononaphan-5-en-3^4-yl)cyclopropanecarboxamide], the IC50 in series [1] was not above 10 nM; in series [2], not above 10 nM; in series [3], more than 1000 nM; in series [4], more than 1000 nM.

As to `[2H]C([2H])([2H])n1c(=O)n2c3c4c(c(-c5cnn(C)c5)[nH]c4ncc31)-c1ccc(cc1)OCC/C=C/C[C@]1(NC(=O)[C@H]3C[C@H]3F)CC[C@@H]2CC1` [Example 10, (1R,2R)-2-fluoro-N-((3^1S,3^4s,E)-2^3-(methyl-d3)-2^7-(1-methyl-1H-pyrazol-4-yl)-2^2-oxo-2^1,2^2,2^3,2^6-tetrahydro-9-oxa-2(8,1)-imidazo[4,5-d]pyrrolo[2,3-b]pyridina-1(1,4)-benzena-3(1,4)-cyclohexanacyclononaphan-5-en-3^4-yl)cyclopropane-1-carboxamide], the IC50 was not above 10 nM in series [1], not above 10 nM in series [2], 500 to 1000 nM in series [3] and 500 to 1000 nM in series [4].

`[2H]C([2H])([2H])n1c(=O)n2c3c4c(cn(S(=O)(=O)c5ccccc5)c4ncc31)-c1ccc(cc1)OCCC=CC[C@]1(NC(=O)[C@H]3C[C@H]3F)CC[C@@H]2CC1` gave a ring closure, yield of all isomers in series [5] of 98%.
